Several values for one entry are separate records, joined by “and”; a condition that tells them apart may be missing. Identical values can stand only once.
molecular target: T1, Alpha-2C adrenergic receptor (Rattus norvegicus, UniProt P22086)
T1 sequence (P22086 whole entry): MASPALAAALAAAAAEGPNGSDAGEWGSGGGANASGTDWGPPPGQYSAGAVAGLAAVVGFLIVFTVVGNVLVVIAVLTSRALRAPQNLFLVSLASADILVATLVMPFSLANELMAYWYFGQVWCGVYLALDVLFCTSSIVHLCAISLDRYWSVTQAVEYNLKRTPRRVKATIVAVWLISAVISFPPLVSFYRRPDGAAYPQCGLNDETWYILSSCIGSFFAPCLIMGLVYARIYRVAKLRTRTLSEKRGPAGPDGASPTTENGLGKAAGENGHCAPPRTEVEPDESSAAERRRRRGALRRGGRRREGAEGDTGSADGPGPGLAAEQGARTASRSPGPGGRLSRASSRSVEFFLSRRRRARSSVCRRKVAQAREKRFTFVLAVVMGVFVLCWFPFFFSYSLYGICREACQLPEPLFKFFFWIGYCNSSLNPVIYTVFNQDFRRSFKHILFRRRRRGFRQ

Compound | Ki
CCN1CCCC1CNC(=O)c1cc(S(N)(=O)=O)ccc1OC (stereo not given) [N-[(1-ethylpyrrolidin-2-yl)methyl]-2-methoxy-5-sulfamoylbenzamide] | 6120 nM and 682 nM
C=CCN1CCc2nc(N)sc2CC1 [B-HT 920] | 152 nM and 62.2 nM
CN1Cc2c(N)cccc2[C@H](c2ccccc2)C1 [(+/-)-2-Methyl-4-phenyl-1,2,3,4-tetrahydro-isoquinolin-8-ylamine] | 8500 nM and 4990 nM
NC(N)=NN=Cc1c(Cl)cccc1Cl [Guanabenz] | 5.8 nM and 36.7 nM
NCCc1c[nH]c2ccc(O)cc12 [[3H]-5-HT] | > 10000 nM
CC(C)(C)[C@]1(O)CCN2C[C@H]3c4ccccc4CCc4cccc(c43)[C@@H]2C1 | 220 nM and 107 nM
NCCc1ccc(O)c(O)c1 | > 10000 nM and 9990 nM
COc1ccc(OC)c(C(O)C(C)N)c1 (stereo not given) | > 10000 nM
O=C(c1ccc(F)cc1)C1CCN(CCn2c(=O)[nH]c3ccccc3c2=O)CC1 [3-(2-{4-[(4-fluorophenyl)carbonyl]piperidin-1-yl}ethyl)-1,2,3,4-tetrahydroquinazoline-2,4-dione] | 2210 nM and 441 nM
C[C@H](N)Cc1ccccc1 [beta-aminopropylbenzene] | 992 nM and 2410 nM

— BindingDB's records for PubMed 2885406 (University of California, 1987)
